Patent US11440898B2, “Isoquinoline compounds, methods for their preparation, and therapeutic uses thereof in conditions associated with the alteration of the activity of beta galactosidase” (Minoryx Therapeutics S.L., priority 2016, dated 2022)

Molecular target: T1, mutated beta-galactosidase (p.R60H canine GLB1) in GM11473 fibroblasts (Canis lupus familiaris, UniProt Q9TRY9, R60H)
T1 construct: host or cells: GM11473 canine GM1 gangliosidosis fibroblasts
T1 sequence (Q9TRY9 30-668 R60H): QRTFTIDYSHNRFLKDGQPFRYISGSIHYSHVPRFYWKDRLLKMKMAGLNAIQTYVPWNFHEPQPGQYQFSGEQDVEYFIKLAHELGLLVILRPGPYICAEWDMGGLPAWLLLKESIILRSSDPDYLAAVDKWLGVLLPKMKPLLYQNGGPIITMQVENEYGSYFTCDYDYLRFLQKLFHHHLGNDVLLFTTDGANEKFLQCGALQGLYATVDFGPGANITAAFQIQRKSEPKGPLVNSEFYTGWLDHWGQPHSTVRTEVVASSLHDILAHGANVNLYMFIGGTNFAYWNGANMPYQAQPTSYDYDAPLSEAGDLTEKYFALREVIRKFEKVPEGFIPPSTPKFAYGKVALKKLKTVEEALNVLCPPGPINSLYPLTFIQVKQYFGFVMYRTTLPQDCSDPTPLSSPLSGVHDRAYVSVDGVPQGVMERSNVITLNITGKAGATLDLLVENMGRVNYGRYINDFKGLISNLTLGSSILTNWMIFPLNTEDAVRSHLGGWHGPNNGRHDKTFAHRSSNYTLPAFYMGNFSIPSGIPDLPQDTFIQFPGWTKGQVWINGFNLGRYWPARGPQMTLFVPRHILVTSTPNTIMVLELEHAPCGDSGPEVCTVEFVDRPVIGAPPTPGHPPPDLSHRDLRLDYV
Assay: Enhancement of β-galactosidase activity measured in GM1 fibroblasts (GM11473), 4-MU-β-D-galactopyranoside substrate
Type: cell-based
Set-up: key: Increase in comparison with non-treated of >2.5 fold is shown as A; Increase in comparison with non-treated of >1.7-2.5 fold is shown as B; Increase in comparison with non-treated of 1.2-1.7 fold is shown as C; D means that no increase compared with non-treated cells was detected in this method
Details: increase in β-galactosidase enzyme activity vs non-treated cells, concentrations between 6 and 50 μM, 4 days incubation
Description: The capacity of the Compounds of the Disclosure to enhance mutated beta-galactosidase activity levels in GM1 fibroblasts was assayed as follows.
Fibroblasts homozygous for a GM1 gangliosidosis missense mutation (GM11473) (canine fibroblasts homozygous for the GM1 gangliosidosis missense mutation p.R60H equivalent to human p.R59H mutation) were purchased from Coriell Institute for Medical Research (Camden, N.J., USA).
Fibroblasts were seeded at 4×10^4 cells per well in 12-well cell culture plates in Dulbecco's Modified Eagle's Media (DMEM) supplemented with 10% of fetal bovine serum (FBS), 1% penicillin/streptomycin (P/S) (Thermo Fisher Scientific, Waltham, Mass., USA) and incubated at 37° C., 5% CO2 overnight for cell attachment. Subsequently, cells were incubated in the absence or presence of the compounds at the desired concentration for 4 days. After incubation, cells were washed twice with phosphate-buffered saline (“PBS”) and detached using Trypsin-EDTA solution (Sigma Aldrich, St. Louis, Mo., USA) to prepare cell pellets. The pellets were stored at −80° C. until activity assays were performed.
β-Galactosidase activity in cell lysates was measured by using 4-Methylumbelliferyl-β-D-galactopyranoside substrate (Sigma Aldrich, St. Louis, Mo., USA). Briefly, lysates were resuspended in 200 μL of 0.9% NaCl containing 0.01% triton X-100 lysis buffer to promote membrane disruption. The cell suspension was sonicated and centrifuged to remove insoluble materials. Then, lysates were mixed with 4-MU-β-D-galactopyranoside in 100 mM citrate buffer (pH=4) and 100 mM NaCl for 60 min at 37° C. The reaction was terminated by adding 100 mM glycine-NaOH buffer (pH=10.7). The liberated 4-MU was measured on a GloMax Discover plate reader (Promega, Madison, Wis., USA) with excitation at 340 nm and emission at 460 nm. Protein quantification was determined using Pierce BCA Protein Assay Kit (Thermo Fisher Scientific, Waltham, Mass., USA). Measurements were interpolated in a 4-MU standard curve and normalized by protein quantity. Enzyme activities were expressed in treated cells as X-fold increase in comparison with non-treated cells (X=1 represents no enhancement).
The capacity of the Compounds of the Disclosure to produce an increase in β-galactosidase enzyme activity in canine GM1 fibroblasts bearing p.R60H canine GLB1 mutation at concentrations between 6 and 50 μM is denoted as follows: • Increase in comparison with non-treated of >2.5 fold is shown as A. • Increase in comparison with non-treated of >1.7-2.5 fold is shown as B. • Increase in comparison with non-treated of 1.2-1.7 fold is shown as C. • D means that no increase compared with non-treated cells was detected in this method. • ND means “not determined.”

Row | Structure (SMILES) | Activity in GM11473 fibroblasts
1 | Cn1nnc2cc(NC(=O)c3cccc(Nc4nccc5ccc(Cl)cc45)c3)ccc21 [Example 1, 3-((7-Chloroisoquinolin-1-yl)amino)-N-(1-methyl-1H-benzo[d][1,2,3]triazol-5-yl)benzamide] | C (Increase in comparison with non-treated of 1.2-1.7 fold is shown as C)
2 | O=C(NCC(c1ccccn1)N1CCOCC1)c1cccc(Nc2nccc3ccc(Cl)cc23)c1 (stereo not shown) [Example 2, 3-((7-Chloroisoquinolin-1-yl)amino)-N-(2-morpholino-2-(pyridin-2-yl)ethyl)benzamide] | C (Increase in comparison with non-treated of 1.2-1.7 fold is shown as C)
3 | O=C(NCc1ccc2c(c1)OCCO2)c1cccc(Nc2nccc3ccc(Cl)cc23)c1 [Example 3, 3-((7-Chloroisoquinolin-1-yl)amino)-N-((2,3-dihydrobenzo[b][1,4]dioxin-6-yl)methyl)benzamide] | C (Increase in comparison with non-treated of 1.2-1.7 fold is shown as C)
4 | O=C(NCc1ccccc1)c1cccc(Nc2nccc3ccc(Cl)cc23)c1 [Example 4, N-benzyl-3-((7-chloroisoquinolin-1-yl)amino)benzamide] | D
5 | O=C(NCc1ccc2c(c1)OCCO2)c1ccc(Nc2nccc3ccc(Cl)cc23)cc1 [Example 5, 4-((7-Chloroisoquinolin-1-yl)amino)-N-((2,3-dihydrobenzo[b][1,4]dioxin-6-yl)methyl)benzamide] | B (Increase in comparison with non-treated of >1.7-2.5 fold is shown as B)
6 | O=C(NCC(c1cccnc1)N1CCCC1)c1ccc(Nc2nccc3ccc(Cl)cc23)cc1 (stereo not shown) [Example 6, 4-((7-Chloroisoquinolin-1-yl)amino)-N-(2-(pyridin-3-yl)-2-(pyrrolidin-1-yl)ethyl)benzamide] | D
7 | O=C(NCC(c1cccnc1)N1CCCC1)c1cc(Nc2nccc3ccc(Cl)cc23)ccn1 (stereo not shown) [Example 7, 4-((7-Chloroisoquinolin-1-yl)amino)-N-(2-(pyridin-3-yl)-2-(pyrrolidin-1-yl)ethyl)picolinamide] | C (Increase in comparison with non-treated of 1.2-1.7 fold is shown as C)
8 | O=C(NCc1ccc2c(c1)OCCO2)c1cc(Nc2nccc3ccc(Cl)cc23)ccn1 [Example 8, 4-((7-Chloroisoquinolin-1-yl)amino)-N-((2,3-dihydrobenzo[b][1,4]dioxin-6-yl)methyl)picolinamide] | B (Increase in comparison with non-treated of >1.7-2.5 fold is shown as B)
9 | O=C(NCc1ccccc1)c1cc(Nc2nccc3ccc(Cl)cc23)ccn1 [Example 9, N-benzyl-4-((7-chloroisoquinolin-1-yl)amino)picolinamide] | B (Increase in comparison with non-treated of >1.7-2.5 fold is shown as B)
10 | COc1ccc(CNC(=O)c2cc(Nc3nccc4ccc(Cl)cc34)ccn2)cc1 [Example 10, 4-((7-Chloroisoquinolin-1-yl)amino)-N-(4-methoxybenzyl)picolinamide] | D
11 | COc1cccc(CNC(=O)c2cc(Nc3nccc4ccc(Cl)cc34)ccn2)c1 [Example 11, 4-((7-Chloroisoquinolin-1-yl)amino)-N-(3-methoxybenzyl)picolinamide] | B (Increase in comparison with non-treated of >1.7-2.5 fold is shown as B)
12 | COc1ccc(CNC(=O)c2cc(Nc3nccc4ccc(Cl)cc34)ccn2)cc1OC [Example 12, 4-((7-Chloroisoquinolin-1-yl)amino)-N-(3,4-dimethoxybenzyl)picolinamide] | C (Increase in comparison with non-treated of 1.2-1.7 fold is shown as C)
13 | O=C(NCc1ccc2nsnc2c1)c1cc(Nc2nccc3ccc(Cl)cc23)ccn1 [Example 13, N-(benzo[c][1,2,5]thiadiazol-5-ylmethyl)-4-((7-chloroisoquinolin-1-yl)amino)picolinamide] | D
14 | O=C(NC1CCc2ccccc2C1)c1cc(Nc2nccc3ccc(Cl)cc23)ccn1 (stereo not shown) [Example 14, 4-((7-Chloroisoquinolin-1-yl)amino)-N-(1,2,3,4-tetrahydronaphthalen-2-yl)picolinamide] | B (Increase in comparison with non-treated of >1.7-2.5 fold is shown as B)
15 | O=C(NCc1ccc2c(c1)OCCCO2)c1cc(Nc2nccc3ccc(Cl)cc23)ccn1 [Example 15, 4-((7-Chloroisoquinolin-1-yl)amino)-N-((3,4-dihydro-2H-benzo[b][1,4]dioxepin-7-yl)methyl)picolinamide] | D
16 | O=C(NCc1ccc2c(c1)CCO2)c1cc(Nc2nccc3ccc(Cl)cc23)ccn1 [Example 16, 4-((7-Chloroisoquinolin-1-yl)amino)-N-((2,3-dihydrobenzofuran-5-yl)methyl)picolinamide] | C (Increase in comparison with non-treated of 1.2-1.7 fold is shown as C)
17 | O=C(NCc1ccc2c(c1)OCO2)c1cc(Nc2nccc3ccc(Cl)cc23)ccn1 [Example 17, N-(benzo[d][1,3]dioxol-5-ylmethyl)-4-((7-chloroisoquinolin-1-yl)amino)picolinamide] | B (Increase in comparison with non-treated of >1.7-2.5 fold is shown as B)
18 | O=C(NCCc1ccc2c(c1)OCCO2)c1cc(Nc2nccc3ccc(Cl)cc23)ccn1 [Example 18, 4-((7-Chloroisoquinolin-1-yl)amino)-N-(2-(2,3-dihydrobenzo[b][1,4]dioxin-6-yl)ethyl)picolinamide] | C (Increase in comparison with non-treated of 1.2-1.7 fold is shown as C)
19 | O=C(NCc1ccc2c(c1)CCCO2)c1cc(Nc2nccc3ccc(Cl)cc23)ccn1 [Example 19, 4-((7-Chloroisoquinolin-1-yl)amino)-N-(chroman-6-ylmethyl)picolinamide] | C (Increase in comparison with non-treated of 1.2-1.7 fold is shown as C)
20 | O=C(NCC1CCc2ccccc2C1)c1cc(Nc2nccc3ccc(Cl)cc23)ccn1 (stereo not shown) [Example 20, 4-((7-Chloroisoquinolin-1-yl)amino)-N-((1,2,3,4-tetrahydronaphthalen-2-yl)methyl)picolinamide] | B (Increase in comparison with non-treated of >1.7-2.5 fold is shown as B)
21 | COc1ccc2ccnc(Nc3ccnc(C(=O)NCc4ccc5c(c4)OCCO5)c3)c2c1 [Example 25, N-((2,3-dihydrobenzo[b][1,4]dioxin-6-yl)methyl)-4-((7-methoxyisoquinolin-1-yl)amino)picolinamide] | C (Increase in comparison with non-treated of 1.2-1.7 fold is shown as C)
22 | COc1ccc2ccnc(Nc3ccnc(C(=O)NCc4ccccc4)c3)c2c1 [Example 26, N-benzyl-4-((7-methoxyisoquinolin-1-yl)amino)picolinamide] | C (Increase in comparison with non-treated of 1.2-1.7 fold is shown as C)
